Laboratory results published in patent EP1767091A2, “Biocidal compositions” (Clariant Produkte (Deutschland) GmbH, priority 2005, dated 2007).

Columns and labels:
[1] = Solubility of biocidal active substances in various solvents, by stepwise concentration of a 10 wt% starting solution at 25°C; assay type: physicochemical
Description: Die nachfolgenden Beispiele dienen der näheren Erläuterung der Erfindung. Alle Prozentangaben sind Gewichtsprozente, sofern nicht anders angegeben. Tabelle 1: Löslichkeiten von bioziden Wirksubstanzen in verschiedenen Lösemitteln
Die Löslichkeiten wurden durch schrittweises Aufkonzentrieren einer Startlösung bei 10 Gew.-% bei 25°C ermittelt. Tabelle 2: Lagerstabilität von bioziden Wirksubstanzen in verschiedenen Lösemitteln bei -5°C, +20°C und +50°C bei 14 Tagen Lagerdauer

[2] = in Tierversuchen; cited from earlier work
[3] = solvent N-Methylpyrrolidon (NMP), weight percent
[4] = solvent Dipropylenglykol (DPG), weight percent
[5] = solvent TEGDME / DPG 1:2,7, weight percent
[6] = solvent Tetraethylenglykoldimethylether (TEGDME), weight percent

Structure (SMILES): O=[N+]([O-])C(Br)(CO)CO [1 (V), 2-Bromo-2-nitro-1,3-propandiol]
- Löslichkeit [25°C] [1, 3]: 51%

Structure (SMILES): N#CCCC(Br)(C#N)CBr (stereo not shown) [16(V), 1,2-Dibromo-2,4-dicyanobutan]
- Löslichkeit [25°C] [1, 4]: 21%

Structure (SMILES): CN1CCCC1=O [N-Methyl-2-Pyrrolidon]
- fruchtschädigende Wirkung [2]: fruchtschädigende Wirkung

Structure (SMILES): CCCCNC(=O)OCC#CI [Beispiel 7, 3-Jod-2-propinyl-butylcarbamat]
- Löslichkeit [25°C] [1, 5]: 50%

Structure (SMILES): O=[N+]([O-])C(Br)(CO)CO [Beispiel 3, 2-Bromo-2-nitro-1,3-propandiol]
- Löslichkeit [25°C] [1, 5]: 39%

Structure (SMILES): N#CCCC(Br)(C#N)CBr (stereo not shown) [13(V), 1,2-Dibromo-2,4-dicyanobutan]
- Löslichkeit [25°C] [1, 3]: 39%

Structure (SMILES): N#CCCC(Br)(C#N)CBr (stereo not shown) [Beispiel 15, 1,2-Dibromo-2,4-dicyanobutan]
- Löslichkeit [25°C] [1, 5]: 34%

Structure (SMILES): CCCCNC(=O)OCC#CI [8(V), 3-Jod-2-propinyl-butylcarbamat]
- Löslichkeit [25°C] [1, 4]: 34%

Structure (SMILES): CCCCNC(=O)OCC#CI [5(V), 3-Jod-2-propinyl-butylcarbamat]
- Löslichkeit [25°C] [1, 3]: 45%

Structure (SMILES): CCCCNC(=O)OCC#CI [Beispiel 6, 3-Jod-2-propinyl-butylcarbamat]
- Löslichkeit [25°C] [1, 6]: 52%

Structure (SMILES): O=[N+]([O-])C(Br)(CO)CO [Beispiel 2, 2-Bromo-2-nitro-1,3-propandiol]
- Löslichkeit [25°C] [1, 6]: 56%

Structure (SMILES): O=[N+]([O-])C(Br)(CO)CO [4(V), 2-Bromo-2-nitro-1,3-propandiol]
- Löslichkeit [25°C] [1, 4]: 26%

Structure (SMILES): N#CCCC(Br)(C#N)CBr (stereo not shown) [Beispiel 14, 1,2-Dibromo-2,4-dicyanobutan]
- Löslichkeit [25°C] [1, 6]: 47%
